Legend:
[1] = test system: autophagy in lung fibroblasts; test: TGF-β1 effect on autophagy (LC3, p62) in lung fibroblasts; format: cell-based, mouse; settings: TGF-β1 10 ng/ml, 24 h
Method: (§1) FIG. 3. CD148 deficiency enhances PI3K/Akt/mTOR signaling which results in low autophagy, high p62 expression in lung fibroblasts. (A) Mouse lung fibroblasts were isolated from Ptprj^fl/fl Col1a2^Cre-ER(T)+/0 mice (Ptprj−/−) and Col1a2^Cre-ER(T)+/0 mice (WT) and then treated with 4-OHT (1 μM) for 24 h. After 4-OHT treatment, cells were exposed to TGF-β1 (10 ng/ml) for 24 h. After stimulation, cells were harvested, and the expression of p-p85 (Tyr458), p-Akt (Ser473), pmTOR (Ser2448), p-p70 S6 kinase (Thr389), p-S6 ribosomal protein (Ser235/236) and CD148 (n=4 for each condition) in lysates was determined by Western immunoblotting and corresponding densitometry (ImageJ software). Data were normalized to corresponding dephospho-forms or GAPDH. (B) WT and Ptprj−/− cells were stimulated with TGF-β1 (10 ng/ml) for 24 h. Then cells were lysed and LC3-I and -II and p62 were measured by western blot (n=4). […] Then, autophagy flux was measured by LC3-II accumulation in the absence or presence of lysosomal acidification inhibitor chloroquine (25 μM) at 2, 4 and 6 h (n=4). […] LC3 puncta positive cells were quantified using ImageJ (D). […]
(§2) Polyacrylamide gel electrophoresis and immunoblotting were performed according to standard methods. […] The signals were detected by ECL (Thermo Fisher Scientific, Waltham, MA). […]

[2] = test system: PI3K/Akt/mTOR signaling in lung fibroblasts; test: TGF-β1 stimulation of PI3K/Akt/mTOR signaling in lung fibroblasts; format: cell-based, mouse; settings: TGF-β1 10 ng/ml, 24 h
Method: as §1, §2

With TGF-β1 the “autophagy (LC3-II relative to LC3-I)” value [1] was “downregulated autophagy”, the p62 expression [1] was “increased p62 expression” and the “phosphorylation of PI3K (p85 subunit), Akt, mTOR and mTOR-related signaling proteins (p70 S6-kinase and S6)” value [2] was “upregulated”.

From US20260297164A1, “ANTI-FIBROTIC PEPTIDES AND USES THEREOF” (Deackt, Inc., priority 2021, published 2026)
